Test results published in PMC9818021, “Targets, Mechanisms and Cytotoxicity of Half-Sandwich Ir(III) Complexes Are Modulated by Structural Modifications on the Benzazole Ancillary Ligand” (Cancers, 2022).

Experiments:
[1] = Stopped flow kinetics of DMSO substitution by OH-; type: physicochemical
Protocol: The slow kinetic measurements were performed with the previous spectrophotometer while the fast kinetic measurements were performed in a stopped flow Bio-Logic SFM-300 spectrophotometer with an absorbance detection system and dead time below 3 ms. The kinetic curves, obtained averaging out at least five shots, were analysed with the Jandel (AISN software, Mapleton, OR) fitting package.

[2] = test system: A549 cells; experiment: 8-OHdG DNA damage quantification; type: cell-based, human; details: 16 μM, 4 h
Protocol: (§1) DNA damage was measured using EpiQuik 8-OHdG DNA Damage Quantification Direct Kit (colorimetric) (Fischer, Waltham, MA, USA, P600396); The mitochondrial cytochrome C release was evaluated using the “Millipore’s FlowCellect Cytochrome C Kit (Millipore, FCCH100110)”. Lactate dehydrogenase activity release was measured in the culture medium using Cytotoxicity Detection Kit (Roche Diagnostic, Barcelona, Spain, 11 644 793 001). Protein synthesis was determined using Click-iT Plus O-propargyl-puromycin (OPP) Protein Synthesis Assay Kit (Invitrogen™, Waltham, MA, USA). Measurement of GSH/GSSG was determined with GSH/GSSG-Glo Assay (Promega, V6611). Measurements of OCR and ECAR with Seahorse XFp (Agilent Technologies) were determined using the XFp Cell Mito Stress Test Kit (103010-100) and XFp Glycolysis Stress Test Kit (103017-100). ATP measurement was determined with Cell Titer-Glo Luminescent Cell Viability Assay (Promega, Madison, WI, USA, G7570). Determination of DNA damage using phosphorylated H2AX measurement were performed as previously described. Cardiolipin oxidation using the fluorophore Nonyl Acridine Orange (NAO, Thermo Scientific, A1372) was performed as described. Cell viability was determined by Hoechst inclusion and Propidium iodide (PI) exclusion by standard protocols. TEM analysis were performed as described. […]

[3] = test system: A549 cells; experiment: Cell cycle analysis by flow cytometry; type: cell-based, human; details: 8 µM, 24 h, PI staining
Protocol: as §1

[4] = test system: A549 cells; experiment: Protein synthesis (Click-iT OPP); type: cell-based, human; details: 16 µM, 6 h
Protocol: as §1

[5] = test system: gene expression (stress response, apoptosis, cell cycle genes); experiment: Microarray differential gene expression (Affymetrix Human Gene 2.1 ST); type: cell-based; details: vs. Control, 6 h after treatment
Protocol: DNA damage was measured using EpiQuik 8-OHdG DNA Damage Quantification Direct Kit (colorimetric) (Fischer, Waltham, MA, USA, P600396); The mitochondrial cytochrome C release was evaluated using the “Millipore’s FlowCellect Cytochrome C Kit (Millipore, FCCH100110)”. Lactate dehydrogenase activity release was measured in the culture medium using Cytotoxicity Detection Kit (Roche Diagnostic, Barcelona, Spain, 11 644 793 001). Protein synthesis was determined using Click-iT Plus O-propargyl-puromycin (OPP) Protein Synthesis Assay Kit (Invitrogen™, Waltham, MA, USA). Measurement of GSH/GSSG was determined with GSH/GSSG-Glo Assay (Promega, V6611). Measurements of OCR and ECAR with Seahorse XFp (Agilent Technologies) were determined using the XFp Cell Mito Stress Test Kit (103010-100) and XFp Glycolysis Stress Test Kit (103017-100). ATP measurement was determined with Cell Titer-Glo Luminescent Cell Viability Assay (Promega, Madison, WI, USA, G7570). Determination of DNA damage using phosphorylated H2AX measurement were performed as previously described. Cardiolipin oxidation using the fluorophore Nonyl Acridine Orange (NAO, Thermo Scientific, A1372) was performed as described. Cell viability was determined by Hoechst inclusion and Propidium iodide (PI) exclusion by standard protocols. TEM analysis were performed as described. Cell cycle analysis by flow cytometry and microarrays analysis were performed as described. Arrays data have been deposited in the ArrayExpress database at EMBL-EBI (www.ebi.ac.uk/arrayexpress) under accession number E-MTAB-860 (10 November 2022)
Studies of the effect of 1[C,NH] on gene expression were performed and assessed 6 h after treatment, in a middle phase, when most cells were still alive (see S.I. Movie S2) but already with characteristic morphological features of apoptosis (Movie S1). Gene expression profiles of cells was determined by Affymetrix Human Gene 2.1 ST Array Plate in three independent experiments. In order to confirm the microarray data, we selected some genes involved in several key pathways: stress response, apoptosis and cell cycle to validate the changes in the expression by RT-qPCR. Results indicated a good correlation between microarray analysis and RT-qPCR. (Table S11). […] Note that not all genes are annotated with these databases. However, the negative regulation of metabolic process and negative regulation of macromolecule metabolic process are highly represented, and ~38% (84) of all genes could be classified in this way. […] The effect of 1[C,NH] on cell cycle progression was further assessed by flow cytometry. […] In summary, mRNA expression analysis is in good agreement with the elevation of ROS, oxidative stress response, cell cycle arrest and induction of apoptosis.

[6] = test system: BALB/c mice; experiment: Acute toxicity in healthy mice; type: in vivo, mouse; details: dissolved in PBS
Text: Female mice weighing approximately 20–25 g, 8–12 weeks were obtained from Janvier Laboratories (Le Genest-Saint-Isle, France). All mice received a standard laboratory diet and water ad libitum. The use of immunosuppressed animals is always a limitation since they are not a true reflection of an animal with a functional immune system and, therefore, can affect both the toxicological response and the biodistribution of a compound, but they are essential to be able to implant human tumor cells, otherwise the tumor would be rejected by the immune system. Therefore, in order to analyze the biodistribution, toxicology and efficacy of a compound against a tumor, it is necessary to use different animals. Animal studies were approved by the Bioethics Committee of the Universidade de Santiago de Compostela and were done in compliance with the principles of laboratory animal care according to Spanish national law (RD 53/2013).

[7] = test system: A549 cells; experiment: MTT viability with NAC pre-incubation; type: cell-based, human; details: NAC 10 mM 2 h pre-incubation, then 24 h
Protocol: Cytotoxicity. MTT Assay and IC50 estimation. The cytotoxicity of 1[C,NH-Cl], 2[C,NMe-Cl], 3[N,NH-Cl]Cl, 4[N,NMe-Cl]Cl, 5[CNH2,NH-Cl]Cl, 6[CNH2,S-Cl]Cl, 7[CO,NH-Cl] and 8[CO,S-Cl] in A2780, A2780cis, SW480 and A549 carcinoma cells was evaluated by the MTT colorimetric assay. Cells were seeded in 96-well plates at 5000 cells per well and incubated at 37 °C, 5% CO2. After 24 h, the medium was removed and replaced with fresh medium with different concentrations of the compounds under study, and they were incubated for 48 h. Final DMSO concentration was kept below 0.7% in wells. For a negative control, one sequence of cells was left untreated and for vehicle control, cells treated with DMSO were included. For cell viability experiments preincubating with NAC (N-Acetyl-L-Cysteine), the cells were pre-treated with NAC, 10 mM for 2 h before the incubation with complex 1[C,NH-Cl] for 24 h. Then, the medium was removed from the wells, and 100 µL MTT (5 mg/mL) was added. […] Cell growth inhibition was detected by measuring the absorbance of each well at 595 nm using a BioTek Cytation5 microplate reader. […] The percentage of survival cells was calculated using absorbance measurements compared with control and the IC50 estimation using Graph Pad Prism version 6.01.

Row | SMILES | k (substitution of DMSO by OH-) ([1]; pH = 10.2) [s⁻¹] | k (substitution of DMSO by OH-) ([1]; pH = 11.5) [s⁻¹] | 8-OHdG levels [2] | Cell cycle distribution [3] | Inhibition of total protein synthesis [4] | ATF3 Microarray (Fold Change (linear)) [5] | ATP1B2 Microarray (Fold Change (linear)) [5] | BBC3 Microarray (Fold Change (linear)) [5] | BCL2L11 Microarray (Fold Change (linear)) [5] | CHAC1 Microarray (Fold Change (linear)) [5] | DDIT3 Microarray (Fold Change (linear)) [5] | EGR1 Microarray (Fold Change (linear)) [5] | FOSB Microarray (Fold Change (linear)) [5] | HIST1H1B Microarray (Fold Change (linear)) [5] | MIR9-1 Microarray (Fold Change (linear)) [5] | PMAIP1 Microarray (Fold Change (linear)) [5] | PPP1R15A Microarray (Fold Change (linear)) [5] | SKP2 Microarray (Fold Change (linear)) [5] | Maximum tolerated dose [6] [mg/kg] | Rescue of cytotoxicity by NAC [7]
1 | Cc1c(C)c(C)[c-](C)c1C.[Cl][Ir]1[O]c2ccccc2-c2sc3ccccc3[n+]21 [8[CO,S], [(η^5-Cp*)IrCl(κ^2-O,N-hpbtz)]] | 39 | 112 |  |  |  |  |  |  |  |  |  |  |  |  |  |  |  |  |  | 
2 | Cc1c(C)c(C)[c-](C)c1C.[Cl][Ir]1[c]2ccccc2-c2[nH]c3ccccc3[n+]21 [1[C,NH], [(η^5-Cp*)IrCl(κ^2-N,C-pbim)]] |  |  | increased after 4 h | percentage of cells in G0/G1 phase increased and cells in G2/M phase decreased | around 60% | 37 | 34.8 | 3.3 | 5.1 | 3 | 23 | > 100 | > 100 | -6.6 | 26.8 | 7.1 | 11 | -4.7 | 1.3 | partial rescue
